Experimental data as given in patent publication US12331042B2, “Compounds suitable for the treatment and prophylaxis of muscle wasting and other conditions” (priority 2019, dated 2025).
Entries after “also recorded” stand apart in the source; their conditions may differ.

Key:
[1] = test system: MuRF1 mRNA in C2C12 myotubes; test: MuRF1 mRNA in C2C12 myotubes treated with dexamethasone (RT-PCR); assay type: cell-based, Murine; details: pre-treatment at 0.1 μmol/L and 10 μmol/L, then 24 h dexamethasone 10 μmol/L
Experimental: Murine C2C12 myoblasts (CRL-1772, ATCC) were cultured in DMEM (Lonza; Basel, Switzerland) supplemented with 10% fetal calf serum (FCS; Gibco®Invitrogen, Carlsbad, CA). For induction of differentiation into myotubes, subconfluent cultures were switched to DMEM containing 2% horse serum (Sigma-Aldrich; Seelze, Germany). Myotubes were subsequently pre-treated for 2 h with increasing compound concentrations (0.1 to 10 μmol/L, dissolved in DMSO) or with an equal volume of DMSO before treatment for 24 h with 10 μmol/L dexamethasone (DEX; Sigma-Aldrich; Seelze, Germany). Myotube diameter was then evaluated by image analysis software (Analysis 3.0, Olympus Soft Imaging Solutions GmbH, Munster, Germany). To determine cytotoxicity of selected compounds, myoblasts or myotubes were incubated with increasing concentrations for 24 h. Subsequently, the concentration of lactate dehydrogenase (LDH) activity was quantified in the cell culture supernatant as a measure for cell destruction as described in Bellocci et al., Anal Biochem, 2008, 374, 48-55.
After the incubation period, Total RNA was isolated from C2C12 cells and reverse transcribed into cDNA using random hexamers and Sensiscript reverse transcriptase (Qiagen, Hilden, Germany). An aliquot of the cDNA was used for quantitative RT-PCR, applying the Light Cycler system (Roche Diagnostics, Mannheim, Germany). […]

[2] = test system: MuRF1, Nox 2, LC3 I/II, nitrotyrosine; test: Protein expression and nitrotyrosine in muscle tissue of B16F10 mice; assay type: in vivo; details: tumor+compound vs tumor
Experimental: Protein expression of MuRF1, Nox 2 and LC3 I/II in muscle tissue of B16F10 mice was determined as described above for the MCT and CHF mice. In addition, the level of the reactive oxygen species marker nitrotyrosine was determined.

[3] = test system: citrate synthase, succinate dehydrogenase, mitochondrial complex I, cytoplasmic enzymes; test: Enzyme activity measurements in diaphragm tissue, CHF mice; assay type: in vivo; details: CHF+compound
Experimental: Diaphragmatic tissue was homogenized in relaxing buffer, and aliquots were used for enzyme activity measurements. Enzyme activities for lactate dehydrogenase (EC 1.1.1.27), pyruvate kinase (EC 2.7.1.40), succinate dehydrogenase (SDH, EC 1.3.5.1), citrate synthase (CS, EC 2.3.3.1), β-hydroxyacyl-COA dehydrogenase (EC 1.1.1.35), and mitochondrial complex I were measured spectrophotometrically as previously described in detail (Mukherjee et al., J Biol Chem, 1976, 251, 2155-2160; Vanderlinde et al., Ann Clin Lab Sci, 1985, 15, 13-31; Dzeja et al., Mol Cell Biochem, 1999, 201, 33-40; Takashi et al., Biochim Biohphys Acta, 1979, 574, 258-267; Schwarzer et al., J Physiol, 2014, 592, 3767-3782). Enzyme activity data are presented as the fold change relative to sham.

[4] = test system: diaphragm fiber bundle of CHF mice; test: Contractile function of diaphragm fiber bundles, CHF mice; assay type: in vivo
Experimental: To provide a direct functional assessment, the contractility in skeletal muscle fiber bundles, i.e. fibre bundle from the diaphragm of MCT mice and CIF mice, was measured as follows. A fiber bundle from the diaphragm was isolated to allow in vitro contractile function to be assessed using a length-controlled lever system (301B, Aurora Scientific Inc., Aurora, Canada), as described by Bowen et al., FASEB J, 2017, 31. Briefly, a muscle bundle was mounted vertically in a buffer-filled organ bath (˜22° C.), set at optimal length, and after 15 min was stimulated over a force-frequency protocol between 1-300 Hz (600 mA; 500 ms train duration; 0.25 ms pulse width). […] Shortening velocity was determined 10 ms after the first change in length and on the linear section of the transient (DMA software, Aurora Scientific). Force (N) was normalized to muscle cross-sectional area (CSA; cm^2) by dividing muscle mass (g) by the product of Lo (cm) and estimated muscle density (1.06), which allowed specific force in N/cm^2 to be calculated. Shortening velocity was normalized to optimal muscle length (in Lo/s), while power was calculated for each load as the product of shortening velocity and specific force (in W/cm^2).

[5] = test system: citrate synthase and mitochondrial complex I; test: Enzyme activity measurements in muscle tissue, B16F10 mice; assay type: in vivo; details: tumor+compound vs tumor
Experimental: The enzyme activities of citrate synthase and mitochondrial complex I in muscle tissue of B16F10 inoculated mice were determined as described above for the […] mice.

`Cc1cc(=O)oc2cc(OCc3ccc(C(=O)OCC(=O)NC(=O)NCc4ccco4)cc3)ccc12` [MyoMed-946, [2-(2-furylmethylcarbamoylamino)-2-oxo-ethyl] 4-[(4-methyl-2-oxo-chromen-7-yl)oxymethyl]benzoate] was tested, and the “expression of MuRF1 at the mRNA level” value [1] was “reduced MuRF1 mRNA levels; also recorded: prevented”, the “downregulation of expression levels of LC3 I/II” value [2] was “attenuated; also recorded: not observed” and the “expression of Nox 2” value [2] was “attenuated; also recorded: significantly reduced”. The “tissue level of nitrotyrosine” value [2] was “attenuated; also recorded: significantly reduced”, the “up-regulation of MuRF1 expression” value [2] was “attenuated; also recorded: prevented” and the “citrate synthase enzyme activity” value ([3]; reduced by 21% in CHF vs sham) was “attenuated; also recorded: partially improved”. The “mitochondrial complex I enzyme activity” value ([3]; reduced by 27% in CHF vs sham) was “attenuated; also recorded: partially improved”, the “succinate dehydrogenase enzyme activity” value ([3]; reduced by 28% in CHF vs sham) was “attenuated; also recorded: partially improved” and the “post-infarct diaphragm weakness (diaphragm myopathy)” value ([4]; CHF mice fed compound vs control chow, week 10) was “protected mice from such a post-infarct diaphragm weakness”. The “loss of diaphragm function and diaphragm maximal force due to chronic heart failure” value ([4]; CHF mice fed compound vs untreated CHF mice) was “significantly reduced” and the “citrate synthase enzyme activity” value [5] was “attenuated; also recorded: partially or complete restores”.
